Earlier results, collected in PubChem BioAssay AID1259409 (Chemical Carcinogenesis Research Information System (CCRIS), 2018).

Tested on: rodent chemically induced tumor inhibition, incidence and multiplicity
Experiment: CCRIS tumor inhibitor studies
Details: Carcinogen: 4-(METHYLNITROSAMINO)-1-(3-PYRIDYL)-1-BUTANONE, 64091-91-4, Dose [Inhibitor]: 0, Promoter: NONE USED

SMILES: S=C=NCCc1ccccc1
- tumour outcome (control, treated, inhibition, significance) (1 UMOL ONCE 2 HR PRIOR TO CARCINOGEN DOSE (STUDY DURATION: 16 WK), Route [Inhibitor]: GAVAGE, Species: MOUSE, Strain/Sex: STRAIN-A/FEMALE, Target Tissue: Type of Lesion: LUNG: ADENOMA, Dose [Carcinogen]: 10 UMOL IN 0.1 ML SALINE ONCE): 100%, 100%, 0%, not significant
- tumour outcome (control, treated, inhibition, significance) (1 UMOL/G DIET FOR 15 WK BEGINNING 1 WK POST CARCINOGEN DOSE (STUDY DURATION: 16 WK), Route [Inhibitor]: ORAL, Species: MOUSE, Strain/Sex: STRAIN-A/FEMALE, Target Tissue: Type of Lesion: LUNG: ADENOMA, Dose [Carcinogen]: 10 UMOL ONCE): 100%, 100%, 0%, not significant
- tumour outcome (control, treated, inhibition, significance) (3 UMOL/G DIET FOR 15 WK BEGINNING 1 WK POST CARCINOGEN DOSE (STUDY DURATION: 16 WK), Route [Inhibitor]: ORAL, Species: MOUSE, Strain/Sex: STRAIN-A/FEMALE, Target Tissue: Type of Lesion: LUNG: ADENOMA, Dose [Carcinogen]: 10 UMOL ONCE): 100%, 100%, 0%, not significant
- tumour outcome (control, treated, inhibition, significance) (3 UMOL/G DIET FOR 21 WK BEGINNING 1 WK PRIOR TO FIRST CARCINOGEN DOSE (STUDY DURATION: 104 WK), Route [Inhibitor]: ORAL, Species: RAT, Strain/Sex: F344/MALE, Target Tissue: Type of Lesion: LIVER: ADENOMA, Dose [Carcinogen]: 1.76 MG/KG 3/WK FOR 20 WK): 12/40 (30%), 9/40 (23%), 23%, not calculated
- tumour outcome (control, treated, inhibition, significance) (3 UMOL/G DIET FOR 21 WK BEGINNING 1 WK PRIOR TO FIRST CARCINOGEN DOSE (STUDY DURATION: 104 WK), Route [Inhibitor]: ORAL, Species: RAT, Strain/Sex: F344/MALE, Target Tissue: Type of Lesion: LIVER: CARCINOMA, Dose [Carcinogen]: 1.76 MG/KG 3/WK FOR 20 WK): 3/40 (8%), 5/40 (13%), -63%, not calculated
- tumour outcome (control, treated, inhibition, significance) (3 UMOL/G DIET FOR 21 WK BEGINNING 1 WK PRIOR TO FIRST CARCINOGEN DOSE (STUDY DURATION: 104 WK), Route [Inhibitor]: ORAL, Species: RAT, Strain/Sex: F344/MALE, Target Tissue: Type of Lesion: LUNG: ADENOMA, Dose [Carcinogen]: 1.76 MG/KG 3/WK FOR 20 WK): 8/40 (20%), 5/40 (13%), 35%, not calculated
- tumour outcome (control, treated, inhibition, significance) (3 UMOL/G DIET FOR 21 WK BEGINNING 1 WK PRIOR TO FIRST CARCINOGEN DOSE (STUDY DURATION: 104 WK), Route [Inhibitor]: ORAL, Species: RAT, Strain/Sex: F344/MALE, Target Tissue: Type of Lesion: LUNG: CARCINOMA, Dose [Carcinogen]: 1.76 MG/KG 3/WK FOR 20 WK): 24/40 (60%), 12/40 (30%), 50%, not calculated
- tumour outcome (control, treated, inhibition, significance) (3 UMOL/G DIET FOR 21 WK BEGINNING 1 WK PRIOR TO FIRST CARCINOGEN DOSE (STUDY DURATION: 104 WK), Route [Inhibitor]: ORAL, Species: RAT, Strain/Sex: F344/MALE, Target Tissue: Type of Lesion: NASAL CAVITY: BENIGN TUMOR, Dose [Carcinogen]: 1.76 MG/KG 3/WK FOR 20 WK): 8/40 (20%), 6/40 (15%), 25%, not calculated
- tumour outcome (control, treated, inhibition, significance) (3 UMOL/G DIET FOR 21 WK BEGINNING 1 WK PRIOR TO FIRST CARCINOGEN DOSE (STUDY DURATION: 104 WK), Route [Inhibitor]: ORAL, Species: RAT, Strain/Sex: F344/MALE, Target Tissue: Type of Lesion: NASAL CAVITY: SQUAMOUS CELL CARCINOMA, Dose [Carcinogen]: 1.76 MG/KG 3/WK FOR 20 WK): 3/40 (8%), 7/40 (3%), 63%, not calculated
- tumour outcome (control, treated, inhibition, significance) (3 UMOL/G OF DIET FOR 112 WK BEGINNING 1 WK PRIOR TO CARCINOGEN TREATMENT (STUDY DURATION: 112 WK), Route [Inhibitor]: ORAL, Species: RAT, Strain/Sex: F344/MALE, Target Tissue: Type of Lesion: HEMATOPOIETIC SYSTEM: LEUKEMIA OR LYMPHOMA, Dose [Carcinogen]: 2 PPM IN DRINKING WATER FOR 111 WK): 26/56 (46%), 28/59 (47%), -2%, not significant
- tumour outcome (control, treated, inhibition, significance) (3 UMOL/G OF DIET FOR 112 WK BEGINNING 1 WK PRIOR TO CARCINOGEN TREATMENT (STUDY DURATION: 112 WK), Route [Inhibitor]: ORAL, Species: RAT, Strain/Sex: F344/MALE, Target Tissue: Type of Lesion: LIVER: ADENOMA OR CARCINOMA, Dose [Carcinogen]: 2 PPM IN DRINKING WATER FOR 111 WK): 5/55 (9%), 2/56 (4%), 56%, not significant
- tumour outcome (control, treated, inhibition, significance) (3 UMOL/G OF DIET FOR 112 WK BEGINNING 1 WK PRIOR TO CARCINOGEN TREATMENT (STUDY DURATION: 112 WK), Route [Inhibitor]: ORAL, Species: RAT, Strain/Sex: F344/MALE, Target Tissue: Type of Lesion: LUNG: ADENOCARCINOMA, Dose [Carcinogen]: 2 PPM IN DRINKING WATER FOR 111 WK): 23/56 (41%), 1/59 (2%), 95%, p=0.00001
- tumour outcome (control, treated, inhibition, significance) (3 UMOL/G OF DIET FOR 112 WK BEGINNING 1 WK PRIOR TO CARCINOGEN TREATMENT (STUDY DURATION: 112 WK), Route [Inhibitor]: ORAL, Species: RAT, Strain/Sex: F344/MALE, Target Tissue: Type of Lesion: LUNG: ADENOMA, Dose [Carcinogen]: 2 PPM IN DRINKING WATER FOR 111 WK): 16/56 (29%), 2/59 (3%), 90%, p=0.0002
- tumour outcome (control, treated, inhibition, significance) (3 UMOL/G OF DIET FOR 112 WK BEGINNING 1 WK PRIOR TO CARCINOGEN TREATMENT (STUDY DURATION: 112 WK), Route [Inhibitor]: ORAL, Species: RAT, Strain/Sex: F344/MALE, Target Tissue: Type of Lesion: NASAL CAVITY: PAPILLOMA OR CARCINOMA, Dose [Carcinogen]: 2 PPM IN DRINKING WATER FOR 111 WK): 1/48 (2%), 0/53 (0%), 100%, not significant
- tumour outcome (control, treated, inhibition, significance) (3 UMOL/G OF DIET FOR 112 WK BEGINNING 1 WK PRIOR TO CARCINOGEN TREATMENT (STUDY DURATION: 112 WK), Route [Inhibitor]: ORAL, Species: RAT, Strain/Sex: F344/MALE, Target Tissue: Type of Lesion: PANCREAS (ENDOCRINE): BENIGN TUMOR, Dose [Carcinogen]: 2 PPM IN DRINKING WATER FOR 111 WK): 5/52 (10%), 7/59 (12%), -20%, not significant
- tumour outcome (control, treated, inhibition, significance) (3 UMOL/G OF DIET FOR 112 WK BEGINNING 1 WK PRIOR TO CARCINOGEN TREATMENT (STUDY DURATION: 112 WK), Route [Inhibitor]: ORAL, Species: RAT, Strain/Sex: F344/MALE, Target Tissue: Type of Lesion: PANCREAS (EXOCRINE): BENIGN TUMOR, Dose [Carcinogen]: 2 PPM IN DRINKING WATER FOR 111 WK): 1/52 (2%), 8/59 (14%), -600%, p=0.025
